Experimental data: patent US10550095B2, “Cancerous cell growth inhibiting compounds” (WISYS TECHNOLOGY FOUNDATION, INC., priority 2016, dated 2020)
Where “and” joins values, the source holds several entries; their conditions need not be identical. Equal values may be shown once. Entries after “also recorded” stand apart in the source; their conditions may differ.

Columns and labels:
B16-F10 melanoma cells [1] = test: cells; type: cell-based
MEK = MEK activity (FIG. 12)
From the text: FIG. 12 are photo illustrations of MEK activity with exemplary embodiments of the human drug treatments of the present invention; and
(§1) The intracellular signaling pathway that involves Raf and MEK is known to be the major pathway to regulate cell proliferation. Many current melanoma drugs such as cobimetinib works by inhibiting Raf or MEK. While they are effective in inhibiting melanoma growth, they exert different degrees of side effect on normal cells by inhibiting the Raf-MEK pathway. […] Also, with regard to FIG. 13, the compound SK-03-92 is shown to inhibit melanoma cell growth by approximately 10% at 10 μM and at 100% at 40 μM.

MAPK = test: Western blot for phosphorylated MAPK in melanoma cells; type: cell-based, mouse; conditions: melanoma cells (FIG. 19A)
From the text: We wanted to further understand the molecular mechanism of A11 and its derivatives by examining the activities of MAPK, Akt, and PRPP pathways which regulate cell proliferation and cell death.
MAPK is involved in the major cell proliferation signaling pathway. In many cancer cells, MAPK is activated at high level by phosphorylation. Using the anti-phosphorylated-MAPK (p-MAPK) on western blot, it is very easy to understand the proliferation ability in cells. […] While the results are against our hypothesis and current understanding, it raises a very interesting mechanism of A11 which requires further investigation. […] The current understanding is that activated MAPK and Akt both lead to cell proliferation.

[2] = test system: DCT (dopachrome tautomerase); test: RT-qPCR of DCT in melanoma cells; type: cell-based, mouse
From the text: (§2) To understand how A11 inhibits melanoma proliferation, we examined the MITF expression level in A11-treated B16-F10 cells by western blot and RT-qPCR.
(§3) The results of several qPCR experiments using melanoma cells were compiled in FIG. 20. Pax3 and sox10 are genes determine the melanocyte precursors while mit-f is the specific transcription factor that initiates melanocyte differentiation. Dct and tyr genes are expressed in differentiated melanocytes. […] The decrease in magnitude is not significant likely due to the very heterogeneous cell types in melanoma.

Pax3 = test: RT-qPCR of Pax3 in melanoma cells; type: cell-based, mouse
From the text: as §2, §3

zebrafish embryos [3] = test: Skin Lightening Efficacy of All Analogs on Zebrafish Embryos (Table 1); type: in vivo; conditions: concentration not given
Method: (§4) The testing protocols for these compounds are as follows: • a. […] The embryos were monitored and imaged throughout their development to track the development of melanin pigment relative to a control group to which water was administered (Protocol 1). • b. […] The embryos were again monitored and imaged throughout their development relative to a control group to which water was administered (Protocol 2). • c. Additionally, to test the ability of the pigment to recover after being treated with our drugs, all embryos were treated at 24 hpf with the chemicals until the 48 hpf or 64 hpf time period, then washed with water to remove the treatment. The embryos were again monitored and imaged throughout their development relative to a control group to which water was administered (Protocol 3).
(§5) The black pigment (or melanin) is very easy to observe in zebrafish. In brief, adult zebrafish are taken to breed embryos. Morphologically normal embryos of 24 hours post fertilization (hpf) stage were selected for incubation in the drugs from 24 to 76 hours. During the incubation, the embryos are monitored and imaged (see FIGS. 1 and 3) to track the development of melanin. […] To broaden the comparison with other skin-whitening products, this project can also test at least three other compounds, Kojic acid, Gallic acid and Haginin. […] In the meantime, the whole organism context also allows us to examine the toxicological profile, if any, of these compounds.

[4] = test system: transgenic melanoma zebrafish embryos; test: Melanoma formation and recovery in transgenic melanoma zebrafish embryos; type: in vivo
Method: as §1

zebrafish embryos [5] = test: Pigment recovery after compound withdrawal (Protocol 3); type: in vivo; conditions: treated 24-48 hpf or 24-64 hpf, then washed, by 72 hpf
Method: (§6) The testing protocols for these compounds are as follows: • a. […] The embryos were monitored and imaged throughout their development to track the development of melanin pigment relative to a control group to which water was administered (Protocol 1). • b. To test the effects of the drugs on existing melanin and/or melanocytes, the embryos were treated with the chemicals at 48 hpf, after pigment had developed. The embryos were again monitored and imaged throughout their development relative to a control group to which water was administered (Protocol 2). • c. Additionally, to test the ability of the pigment to recover after being treated with our drugs, all embryos were treated at 24 hpf with the chemicals until the 48 hpf or 64 hpf time period, then washed with water to remove the treatment. The embryos were again monitored and imaged throughout their development relative to a control group to which water was administered (Protocol 3).
It has been reported that melanin usually reappears after the withdrawal of skin whitening products. […] The pigmentation was monitored closely for 48-72 hours. Similarly, this experiment was repeated at least three times to gain a reproducible result.

melanoma cells = test: Mitotic index of melanoma cells (anti-phospho-histone H3 antibody); type: cell-based, mouse; conditions: anti-phospho-histone H3 (FIG. 16)
MITF [6] = test: RT-qPCR of MITF (mit-f) in melanoma cells; type: cell-based, mouse
From the text: as §2, §3

[7] = test system: melanocytes in zebrafish embryos; test: TUNEL assay, melanocyte apoptosis in normal and transgenic melanoma-forming zebrafish embryos; type: in vivo; conditions: normal and transgenic melanoma-forming embryos (FIGS. 18A-18B)
[8] = test system: melanocytes in zebrafish embryos; test: Mitotic index of melanocytes in zebrafish embryos; type: in vivo; conditions: zebrafish embryo (FIG. 17)
MITF [9] = test: Western blot for MITF protein level in B16-F10 cells; type: cell-based, mouse; conditions: western blot vs DMSO control (FIG. 21)
From the text: as §2

[10] = test system: dct-expressing cells (differentiated melanocytes); test: In situ hybridization for the dct gene in zebrafish embryos; type: in vivo; conditions: zebrafish embryos (FIG. 22)
From the text: To further understand the mechanism of A11, we examined the development of melanocytes by in situ hybridization for the dct (dopachrome tautomerase) gene which is expressed in differentiated melanocytes.

zebrafish embryos [11] = test: Effect on existing melanin and/or melanocytes, embryos treated at 48 hpf (Protocol 2); type: in vivo
Method: as §6
To test the effects of the drugs on existing melanin and/or melanocytes, the embryos were treated with the chemicals A11, MEK-I and PTU at 48 hpf, after pigment had developed. The embryos were again monitored and imaged throughout their development according to Protocol 2.

Akt = test: Western blot for phosphorylated Akt in melanoma cells; type: cell-based, mouse; conditions: western blot (FIG. 19B)
tyrosinase [12] = test: RT-qPCR of tyrosinase in melanoma cells; type: cell-based, mouse
From the text: as §2, §3

tyrosinase [13] = test: Effect on tyrosinase expression (FIG. 8)
From the text: FIG. 8 is a graph of the effects of various pigment reducing compositions on tyrosinase expression;
as §1

[14] = test system: primary human melanocytes; test: Growth of normal melanocytes; type: cell-based
Method: These cells proliferate slowly making it difficult to gather enough cells for experiments with all the A11 analogs. […] In the second experiment, A7 and a few other compounds were evaluated. […] At 10 μM, FSK-03-92 caused near 80% lethality (comparing with the 20% kill by 10 μM FSK-03-92 on melanoma cells in FIG. 14).

zebrafish embryos [15] = test: Inhibition of melanin synthesis in zebrafish embryos, treated 24-76 hpf (Protocol 1); type: in vivo; conditions: zebrafish embryos treated 24-76 hpf
Method: as §4, §5

B16-F10 melanoma cells [16] = test: Melanin in melanoma cells; type: cell-based, mouse; conditions: for Melanin: melanoma cells
From the text: (MEK-I is a known MEK inhibitor as a comparison purchased from Sigma): […]

SMILES: COc1cc(O)cc(/C=C/Oc2ccccc2C)c1 [Analog A11, 2-Methylphenyl-E-(3-hydroxy-5-methoxy)-styryl Ether]
- Average Melanoma growth (from the previous chart) (B16-F10 melanoma cells [1]; 2 μM): 86%
- Average Melanoma growth (from the previous chart) (B16-F10 melanoma cells [1]; 10 μM): 88%
- Average Melanoma growth (from the previous chart) (B16-F10 melanoma cells [1]; 20 μM): 81%
- Average Melanoma growth (from the previous chart) (B16-F10 melanoma cells [1]; 40 μM): 50%
- cell proliferation compared to the control (B16-F10 melanoma cells [1]; 40 μM (FIG. 14)): 50%
- EC50 (B16-F10 melanoma cells [1]; Mus musculus, B16-F10, melanoma cells (FIG. 14), read-out: EC50 in inhibiting melanoma growth): ~40 µM
- melanoma cell death (in words) (B16-F10 melanoma cells [1]; any of the tested concentrations): no cell death was observed
- inhibition of melanoma cell growth / cell number (in words) (B16-F10 melanoma cells [1]; melanoma cells): decrease of melanin as well as the cell number
- Growth (B16-F10 melanoma cells [1]; melanoma cells, 2 μM): 86%
- Growth (B16-F10 melanoma cells [1]; melanoma cells, 10 μM): 88% and 92% and 101% and 69%
- Growth (B16-F10 melanoma cells [1]; melanoma cells, 20 μM): 81% and 80%
- MEK activity (in words) (MEK): increasing MEK activity
- amount of p-MAPK / MAPK activity (in words) (MAPK): significantly increase the MAPK activity; also recorded: increases the amount of p-MAPK
- DCT expression (in words) [2]: decreased
- Pax3 expression (in words) (Pax3): reduces Pax3 expression
- Pigmentation (zebrafish embryos [3]): 10%
- formation and recovery of melanoma (in words) [4]: inhibited the formation and recovery of melanoma; also recorded: inhibit both the formation of melanoma and the recovery of melanoma
- pigmentation recovered after wash-off (zebrafish embryos [5]): 50%
- pigmentation recovered after wash-off (zebrafish embryos [5]; listed as A-11): approximately 50%
- mitotic index of melanoma cells (in words) (melanoma cells): significantly lower mitotic index
- MITF (mit-f) mRNA expression (in words) (MITF [6]): lower amount of MITF mRNA; also recorded: expressed at high level; also recorded: decreases the expression of mit-f gene
- melanocyte apoptosis / cell death (in words) [7]: does not induce apoptosis; also recorded: no significant difference
- mitosis / mitotic index of melanocytes (in words) [8]: reduces mitosis
- MITF protein level (in words) (MITF [9]): distinguishably lower
- number of dct-expressing cells (in words) [10]: significantly lower than in the control
- existing pigment remaining (zebrafish embryos [11]): 20%
- phosphorylated Akt (in words) (Akt): slight increase of phosphorylated Akt
- tyrosinase expression (in words) (tyrosinase [12]): decreased
- tyrosinase formation (in words) (tyrosinase [13]): not to inhibit tyrosinase formation
- toxicity to normal melanocytes (in words) [14]: does not seem to cause high toxicity
- inhibition of growth of normal melanocytes (in words) ([14]; 10 μM): did not show any inhibition
- pigmentation inhibition (in words) (zebrafish embryos [15]): nearly complete pigmentation loss; also recorded: inhibits pigmentation formation
- Pigmentation (zebrafish embryos [15]; 10 μM): < 5%
- Melanin (B16-F10 melanoma cells [16]; 2 μM): 99%
- Melanin (B16-F10 melanoma cells [16]; 10 μM): 104% and 84% and 97% and 95% and 100%
- Melanin (B16-F10 melanoma cells [16]; 20 μM): 101% and 92%
- Melanin (B16-F10 melanoma cells [16]; 40 μM): 84% and 68% and 56%
- melanin in B16-F10 cells (in words) (B16-F10 melanoma cells [16]; mouse cell line B16-F10): decrease of melanin
